Entries after “also recorded” stand apart in the source; their conditions may differ.
Legend:
[1] = target: H4 receptor (Homo sapiens, UniProt Q9H3N8); details: as described in U.S. Pat. No. 7,507,737, 8,343,989 and others; cited from earlier work
[2] = Aqueous solubility at room temperature; assay type: physicochemical
[3] = Hygroscopicity and physical (solid form) stability; assay type: physicochemical; details: for conversion to another solid form: aqueous solution, atmosphere, dehydration or recrystallization; for physical stability: ambient conditions

Row | aqueous solubility [2] | hygroscopicity [3] | relative humidity above which it converts to Compound 3 [3] | Structure (SMILES) | H4 receptor modulator activity [1] | conversion to another solid form [3] | physical stability [3]
1 | – | – | – | Cc1cc(C)c2nc(-c3cnc(NCCCC4CCN(C)CC4)nc3C)[nH]c2c1 [Compound 2, [5-(4,6-Dimethyl-1H-benzoimidazol-2-yl)-4-methyl-pyrimidin-2-yl]-[3-(1-methyl-piperidin-4-yl)-propyl]-amine] | has H4 receptor modulator activity | – | –
2 | about 1.1 g/ml | hygroscopic | above 70 % relative humidity | Cc1cc(C)c2nc(-c3cnc(NCCCC4CCN(C)CC4)nc3C)[nH]c2c1.O=C(O)C(O)C(O)C(=O)O [Compound 2.1, 5-(4,6-dimethyl-1H-benzimidazol-2-yl)-4-methyl-N-[3-(1-methyl-4-piperidinyl)-propyl]-2-pyrimidinamine 2,3-dihydroxybutanedioate (1:0.5)] | – | forms the tetrahydrate Compound 3 in aqueous solution | –
3 | – | absorbs water readily | – | Cc1cc(C)c2nc(-c3cnc(NCCCC4CCN(C)CC4)nc3C)[nH]c2c1 [Compound 2.2, 5-(4,6-dimethyl-1H-benzimidazol-2-yl)-4-methyl-N-[3-(1-methyl-4-piperidinyl)-propyl]-2-pyrimidinamine 2,3-dihydroxybutanedioate (1:0.5)] | – | converts to Compound 3 when exposed to the atmosphere | physically stable only when stored in a tightly sealed vial at ambient condition
4 | about 4.1 mg/ml | – | – | Cc1cc(C)c2nc(-c3cnc(NCCCC4CCN(C)CC4)nc3C)[nH]c2c1.O=C(O)C(O)C(O)C(=O)O [Compound 3, 5-(4,6-dimethyl-1H-benzimidazol-2-yl)-4-methyl-N-[3-(1-methyl-4-piperidinyl)-propyl]-2-pyrimidinamine 2,3-dihydroxybutanedioate tetrahydrate (1:0.5:4)] | – | converts to Compound 2.2 upon dehydration by heating or in low relative humidity; also recorded: no conversion of Compound 3 to other forms was detected | stable under ambient conditions
